Two substances from publication PMC9404989, “Design and Evaluation of Short Bovine Lactoferrin-Derived Antimicrobial Peptides against Multidrug-Resistant Enterococcus faecium” (Antibiotics, 2022) can be followed below.

The test system of one data set is E. faecium. Description: Antibacterial activity of native LfcinB6. Type of data set: cell-based, Enterococcus faecium. The settings on record: strain and source not given.
A further data set relates to S. aureus MW2. Description: microbe, parasite or virus in culture. The data set is classed as cell-based, Staphylococcus aureus. Conditions: MW2, 18 h. The protocol:
(§1) To determine the MICs of peptides, we used the broth microdilution method described by the Clinical and Laboratory Standards Institute. We made serial dilutions of 10× concentration (10 µL) for each peptide in duplicates in 96-well plates (Cat No. 3595, Corning, New York, NY, USA). We added 90 µL of logarithmic-phase bacteria at 5 × 10^5 CFU/mL (in BHI media) to the peptides and then incubated the plates at 37 °C for 18 h. We measured the OD600 absorbance readings using the Spectra Max i3x spectrophotometer (Molecular Devices, San Jose, CA, USA) and determined the MIC as the peptide concentration that inhibits the growth of bacteria.

Another data set has as its system E. faecalis OG1RF. The data set is described as follows: MIC assay, E. faecalis OG1RF. Type of data set: cell-based. The settings on record: rifampin and fusidic acid resistant. As to the method:
as §1

Data set [1] has as its system E. faecium C68 biofilm formation. Description: Prevention of E. faecium biofilm formation (XTT, crystal violet). The data set is classed as cell-based, Enterococcus faecium. The settings on record: XTT, 24 h, BHI + 0.2% glucose. The protocol:
We evaluated the ability of the lactoferrin-derived peptides to inhibit biofilm formation following an established protocol with modifications. In short, we prepared exponential cultures of E. faecium C68 (adjusted to OD600 = 0.01) in BHI media (supplemented with 0.2% glucose) from overnight grown cultures. We added 90 µL of the bacterial culture to 10 µL of serially diluted 10× peptide solution in flat-bottomed 96-well polystyrene microtiter plates (Cat No. 3595, Corning, NY, USA) and then incubated the plates at 37 °C for 24 h. We considered media containing bacteria and water as the positive control, while media with water served as the negative control. After incubation, we carefully pipetted out the media and washed the wells with PBS (Gibco, Waltham, MA, USA) to remove loosely attached planktonic cells. We quantified the biomass by staining the biofilms with crystal violet following an established protocol and quantitated the concentration of peptide that inhibits 50% of biofilm formation (MBIC50). Furthermore, we measured the live cell count of the biofilms using XTT [2,3-bis(2-methyloxy-4-nitro-5-sulfophenyl)-2H-tertazolium-5-carboxanilide] dye (ATCC, Manassas, VA, USA). We calculated the percentage of biofilm growth by assuming that there was 100% biofilm growth in wells with bacteria without peptide treatment.

The test system of data set [2] is E. faecium strain C68. Description: microbe, parasite or virus in culture. Conditions: strain C68, 18 h. Type of data set: cell-based, Enterococcus faecium. As to the method:
as §1
To investigate the activity of peptides in various salt concentrations, we included physiologically relevant salts in the BHI medium.

Data set [3] deals with E. faecium strain C68. Description: microbe, parasite or virus in culture. The settings on record: strain C68, 18 h. Type of data set: cell-based, Enterococcus faecium. As to the method: as §1
The source holds these as a separate data set.

The test system of the next data set is E. faecium D29. Description: microbe, parasite or virus in culture. Type of data set: cell-based, Enterococcus faecium. Conditions: D29, 18 h. The protocol: as §1
The next data set has as its system E. faecium D25. The data set is described as follows: microbe, parasite or virus in culture. Type of data set: cell-based, Enterococcus faecium. Conditions: D25, 18 h. As to the method: as §1
For the next data set, the system named is E. faecium D24. The data set is described as follows: microbe, parasite or virus in culture. The data set is classed as cell-based, Enterococcus faecium. Conditions: D24, 18 h. The protocol:
as §1

A further data set concerns E. faecium D14. Description: microbe, parasite or virus in culture. Type of data set: cell-based, Enterococcus faecium. Conditions: D14, 18 h. The protocol: as §1
A further data set has as its system E. faecium E007. The data set is described as follows: microbe, parasite or virus in culture. Type of data set: cell-based, Enterococcus faecium. Conditions: E007, 18 h. As to the method: as §1
For a further data set, the system named is E. faecalis MMH594. The data set is described as follows: microbe, parasite or virus in culture. Type of data set: cell-based. Conditions: MMH594, 18 h. As to the method:
as §1

For another data set, the system named is E. faecalis V583. The data set is described as follows: microbe, parasite or virus in culture. The data set is classed as cell-based. The settings on record: V583, 18 h. The protocol: as §1
Data set [4] deals with E. faecium E007 established biofilms. Type of data set: cell-based, Enterococcus faecium.
Another data set relates to E. faecium WC176. The data set is described as follows: organism not typed. Type of data set: cell-based, Enterococcus faecium. Conditions: WC176, 18 h. The protocol:
as §1

A short description of data set [5]: HPLC retention time on C18 reverse-phase column. The data set is classed as physicochemical. The source says:
Table 1 Physical parameters and the minimal inhibitory concentration (µg/mL) of designed peptides against E. faecium. | column: rT ^f (min)

The subject of data set [6] is E. faecium strain C68 established biofilms. Type of data set: cell-based, Enterococcus faecium. The settings on record: strain C68 established biofilms, 24 h. The protocol:
We prepared exponential cultures of E. faecium strain C68 (adjusted to 1 × 10^8 CFU/mL) in BHI media (supplemented with 0.2% glucose) from overnight grown cultures. We added 100 µL of the bacterial culture to wells of flat-bottomed 96-well polystyrene microtiter plates (Cat No. 3595, Corning, NY, USA). We then incubated the plates at 37 °C for 24 h in static conditions to allow biofilm formation. After incubation, we carefully pipetted out the media and washed the wells with PBS (Gibco, Waltham, MA, USA) to remove loosely attached planktonic cells. We treated the established biofilms in each well with 10 µL of serially diluted 10× peptide solution, followed by the addition of 90 μL of BHI media (supplemented with 0.2% glucose). The plates were incubated for another 24 h at 37 °C before processing for biomass and live-cell contents. We quantitated the concentration of peptide that disrupts 50% of established biofilms (MBEC50).

Data set [7] relates to drug-resistant E. faecium clinical isolates. The data set is classed as cell-based, Enterococcus faecium. Conditions: strains D14, D24, D25, D29, C68 and WC176. As to the method:
as §1

No end group written: not given here.

As for RRWQWR [LfcinB6], the “activity against E. faecium” value in the data set with E. faecium is “inactive”.

For the substance RRWLWRRRWLWL-NH2 [Peptide 8L], the “MIC S. aureus MW2” value with S. aureus MW2 is > 32 µg/mL. In addition, the “MIC E. faecalis OG1RF” value against E. faecalis OG1RF was > 32 µg/mL. Besides, in data set [1], the “concentration killing 50% of live bacterial cells during biofilm formation stage” value turned out to be 2.8 µg/mL. Also, in the data set on E. faecium strain C68 [2], the “MIC + CaCl2 (2.5 mM)” value was 16 µg/mL, the “MIC + MgSO4 (1 mM)” value was 4 µg/mL, the “MIC + NaCl (150 mM)” value was 4 µg/mL and the “MIC + ZnSO4 (8 µM)” value came to 2 µg/mL. Moreover, in the data set with E. faecium strain C68 [3], the “MIC EF C68” value was determined as 4 µg/mL and the “MIC Media Only” value is listed as 4 µg/mL. Also, the “MIC D29” value against E. faecium D29 came out at 32 µg/mL. Moreover, in the data set with E. faecium D25, the “MIC D25” value is on record as 8 µg/mL. Moreover, in the data set on E. faecium D24, the “MIC D24” value turned out to be 8 µg/mL. For the same substance, the “MIC D14” value against E. faecium D14 came out at 16 µg/mL. For the same substance, the “MIC E007” value with E. faecium E007 stood at 4 µg/mL. Besides, the “MIC E. faecalis MMH594” value with E. faecalis MMH594 was > 32 µg/mL. In addition, the “MIC E. faecalis V583” value in the data set on E. faecalis V583 was > 32 µg/mL. Besides, the “concentration killing 50% of live bacteria cells in established biofilms” value in data set [4] (strain E007, 24 h established biofilms, XTT) is reported as > 32 µg/mL. The established biomass disrupted in data set [4] (strain E007, at 32 µg/mL) was 25–30%. In addition, in the data set with E. faecium WC176, the “MIC WC176” value is recorded as 16 µg/mL. Besides, the “rT (HPLC retention time)” value in data set [5] is 21.235 min. Besides, the “MBEC50 (established biomass)” value in data set [6] is given as 30 µg/mL. Besides, the “MIC range against clinical isolates of E. faecium” value in data set [7] is 8 to 32 µg/mL.
